pIC50: −log10 of the molar value. Where two headings read alike, the source gives them in different places.
Columns and labels:
[1] = tested on: SYK-mediated BCR signaling; experiment: Whole blood BCR signaling assay after oral dosing (pSYK Y525/526, pERK Y204, pAKT S473); assay type: cell-based, human; conditions: for pIC50: Homo sapiens
Procedure: For PD assessments, serial blood samples were drawn into lithium-heparin vacutainer tubes on Day 1 prior to dosing and again at 0.5, 1, 2, and 4 hours post-dose; on Day 8 at pre-dose and 2 hours post-dose; and Day 28 prior to dosing. Multiple assays were performed using the Day 1 and Day 8 PD samples. SYK-mediated BCR signaling in whole blood was measured prior to and post-dosing by stimulating 100 μL whole blood with 2 μL of anti-human IgD (IgG fraction) and 10 μg anti-human IgM for 10 minutes at 37° C., measuring the induction of pSYK Y525/526, pAKT S473, and pERK Y204. Similarly, whole blood was stimulated with 10 ng/mL of IL-2 (JAK1/3-dependent), IL-4 (JAK1/3-dependent), IL-6 (JAK1/TYK2-dependent) or GM-CSF (JAK2-dependent) for 20 minutes, measuring the induction of pSTAT5 Y694 in T-cells and NK cells, the induction of pSTAT6 Y641 in B cells, T-cells, NK cells, and monocytes, the induction of pSTAT3 Y705 in monocytes, B cells, and T-cells, and the induction of pSTAT5 Y694 in monocytes, respectively. […] With blood samples from the CLL patients only, tumor cell surface expression of CD5, CD69, CD86, and CXCR4 pre-dose on days 1 and 28 were monitored. […] For each assay, data were collected using an LSR II instrument (BD Bioscience, San Jose, Calif.) and analyzed using Flowjo software (Flowjo LLC, Ashland, Oreg.). […]
The data were analyzed using the statistical language R and the accessory packages ggplot2 (Wickham, H., Elegant Graphics for Data Analysis. 2016: Springer-Verlag) and drc (Ritz, C., et al., Dose-Response Analysis Using R. PLoS One, 2015. 10(12): p. e0146021). For cell signaling assays, percent inhibition was determined by normalizing the receptor-induced phosphorylation events mean fluorescent intensity (MFI) to that of pre-dose receptor-induced MFI. The resulting relative activities were analyzed by nonlinear regression to a 3-parameter log-logistic function with an upper and lower limit set at 100 and 0%. […] The significance of the relation between maximum tumor response and change in a specific biomarker was evaluated using Spearman-Rank-correlation and p value.

SU-DHL6 xenograft = SU-DHL6 xenograft in Nude mice; assay type: in vivo; conditions: tumors treated with cerdulatinib
Procedure: Xenograft studies in Nude mice were performed to evaluate cerdulatinib and venetoclax in combination. Nude mice were inoculated with […] SU-DHL6 cells subcutaneously. Once tumors reached 200 mm^3, the mice were randomized into 4 groups: vehicle, cerdulatinib alone, venetoclax alone, or a combination of cerdulatinib and venetoclax.

[2] = Cerdulatinib plasma concentration in patients (LC-MS/MS); assay type: in vivo, human
Procedure: Blood samples were collected on K2EDTA for the determination of total cerdulatinib plasma concentrations on day 1 prior to dosing and at 0.5, 1, 2, 3, 4, 6, 8, and 12 hours post-dose; on Day 8 at pre-dose and 2 hours post-dose; on Day 15 pre-dose; and on Day 28 (end of the first treatment cycle) at pre-dose and at 0.5, 1, 2, 3, 4, 6, 8, and 12 hours post-dose. A liquid chromatography-tandem mass spectrometry (LC-MS/MS) method was developed and validated by Alturas Analytics, Inc. (Moscow, Id.) for the determination of cerdulatinib concentration in human plasma. […] J Pharmacol Exp Ther, 2014. 351(3): p. 538-48. Chromatographic separations were performed over a Phenomenex Synergi Polar-RP column (50×2.0 mm, 4 μm) (Phenomenex, Torrance, Calif., USA). MS/MS analysis was performed using a Sciex API-4000 triple quadrupole mass spectrometer with a TurboSpray ion source (Applied Biosystems, Foster City, Calif., USA). The peak area of the m/z 394→360 cerdulatinib product ion was measured against the peak area of the m/z 397→363 internal standard product ion. Intra-assay precision (% CV) and accuracy (% bias) were within 0.8% to 4.5% and −10.1% to 7.8%, respectively, and inter-assay precision (% CV) and accuracy (% bias) were 2.0% to 3.8% and −7.3% to 6.0%, respectively.

CCS(=O)(=O)N1CCN(c2ccc(Nc3ncc(C(N)=O)c(NC4CC4)n3)cc2)CC1 [cerdulatinib, 4-(cyclopropylamino)-2-((4-(4-(ethylsulfonyl)piperazin-1-yl)phenyl)amino)pyrimidine-5-carboxamide]
pIC50 ([1]; po, estimated from PK/PD relationships, whole blood, read-out: IC50, measures of BCR-signaling): 6.14 to 6.48
pIC50 ([1]; following oral dosing, lower and upper limit confidence intervals for ERK and AKT, read-out: IC50 against BCR signaling): 6.13 to 6.77
inhibition of BCR-induced pSYK Y525/526, pERK Y204 and pAKT S473 ([1]; at tolerated exposures): High level inhibition
Bim expression in tumors (SU-DHL6 xenograft): increase
MCL-1 in tumors (SU-DHL6 xenograft): no change
SSCmin achieved ([2]; CLL/SLL patients, lower dose cohorts): 0.004 to 0.325 µM
SSCmin exposures at which tumor responses were more apparent ([2]; FL patients): 0.729 to 1.219 µM
SSCmin to SSCmax cerdulatinib serum concentrations ([2]; human, in vivo): 0.32 to 0.38 µM
SSCmin that was well tolerated ([2]; phase 1 dose-escalation): up to 1 μM
average SSCmin ([2]; phase 2 dose 30 mg BID): ~0.8 µM
